Like-named read-outs stand apart in the source and are kept apart here. *1 amine or outer side, *2 acyl side, *3 side chain or, on linkers, in order; H or OH if unused. Where a SMILES comes first, the peptide text is derived from it. Side-chain parts run from the residue outwards. [ ]: non-standard residue; d: D form. The star is where a group is joined. αMePhe(2-F) = C[C@](N)(Cc1ccccc1F)C(=O)O; γGlu = O=C(O)[C@H](CCC(=O)[*:2])N[*:1]; C14 diacid = O=C(O)CCCCCCCCCCCCC(=O)*; αMeF = C[C@](N)(Cc1ccccc1)C(=O)O; 4Pal = N[C@@H](Cc1ccncc1)C(=O)O; αMeL = CC(C)C[C@](C)(N)C(=O)O; Orn = NCCC[C@H](N)C(=O)O; AEEA = NCCOCCOCC(=O)O; Aib = CC(C)(N)C(=O)O
Columns and labels:
Type in all cases: cell-based
hGIPR = biological target: T1, hGIPR (Homo sapiens, UniProt P48546); assay: Functional cAMP formation (HTRF) in HEK-293 clonal cells expressing hGIPR, 0.1% bovine casein, without or with 1.0% human serum albumin; details: for EC50: geometric mean, read-out: hGIPR EC50, nM (SEM, n)
T1 construct: expressed in transfected cells
T1 sequence (P48546 22-466): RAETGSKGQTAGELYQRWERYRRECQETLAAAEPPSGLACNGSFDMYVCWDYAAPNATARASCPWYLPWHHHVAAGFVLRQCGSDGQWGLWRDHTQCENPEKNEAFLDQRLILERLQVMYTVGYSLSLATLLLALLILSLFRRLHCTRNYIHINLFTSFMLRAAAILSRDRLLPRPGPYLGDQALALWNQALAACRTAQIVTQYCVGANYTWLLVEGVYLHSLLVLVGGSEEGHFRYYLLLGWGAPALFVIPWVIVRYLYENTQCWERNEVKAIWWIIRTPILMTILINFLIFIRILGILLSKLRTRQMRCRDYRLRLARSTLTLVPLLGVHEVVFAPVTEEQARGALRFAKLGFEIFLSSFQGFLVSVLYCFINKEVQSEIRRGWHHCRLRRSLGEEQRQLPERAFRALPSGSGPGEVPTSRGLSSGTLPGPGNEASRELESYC
How it was run: (§1)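 Cells were stimulated with peptide for 30 min at 37° C, then lysed in buffer carrying cAMP-d2 and anti-cAMP Eu3+-cryptate for a competitive HTRF read after at least 60 min at room temperature. The 665/620 nm ratio was converted to nM cAMP against a standard curve.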

hGCGR = biological target: T2, hGCGR (Homo sapiens, UniProt P47871); assay: Functional cAMP formation (HTRF) in HEK-293 clonal cells expressing hGCGR, 0.1% bovine casein, without or with 1.0% human serum albumin; details: geometric mean
T2 construct: expressed in transfected cells
T2 sequence (P47871 26-477): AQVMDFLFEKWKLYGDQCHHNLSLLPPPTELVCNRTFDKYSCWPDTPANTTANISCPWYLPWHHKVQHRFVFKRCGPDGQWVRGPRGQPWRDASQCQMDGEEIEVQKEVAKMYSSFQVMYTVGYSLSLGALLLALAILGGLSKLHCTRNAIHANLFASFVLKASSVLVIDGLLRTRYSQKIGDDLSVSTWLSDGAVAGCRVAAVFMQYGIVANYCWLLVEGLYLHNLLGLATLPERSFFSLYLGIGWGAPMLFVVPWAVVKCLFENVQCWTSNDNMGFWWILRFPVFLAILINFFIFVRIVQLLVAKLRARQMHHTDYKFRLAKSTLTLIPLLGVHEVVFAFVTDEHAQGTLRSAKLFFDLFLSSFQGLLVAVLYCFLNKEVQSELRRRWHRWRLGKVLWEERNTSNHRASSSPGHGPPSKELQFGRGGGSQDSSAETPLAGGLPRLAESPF
How it was run: as §1

hGLP-1R = hGLP-1R (Homo sapiens, UniProt P43220); assay: Functional cAMP formation (HTRF) in HEK-293 clonal cells expressing hGLP-1R, 0.1% bovine casein, without or with 1.0% human serum albumin; parameters: expressed in transfected cells; details: for Emax: 37° C., 0.1% bovine casein, arithmetic mean; for EC50: cAMP, incubated at 37° C., 0.1% bovine casein (no human serum albumin), geometric mean, read-out: hGLP-1R EC50, nM (SEM, n)
hGLP-1R, sequence (P43220 24-463): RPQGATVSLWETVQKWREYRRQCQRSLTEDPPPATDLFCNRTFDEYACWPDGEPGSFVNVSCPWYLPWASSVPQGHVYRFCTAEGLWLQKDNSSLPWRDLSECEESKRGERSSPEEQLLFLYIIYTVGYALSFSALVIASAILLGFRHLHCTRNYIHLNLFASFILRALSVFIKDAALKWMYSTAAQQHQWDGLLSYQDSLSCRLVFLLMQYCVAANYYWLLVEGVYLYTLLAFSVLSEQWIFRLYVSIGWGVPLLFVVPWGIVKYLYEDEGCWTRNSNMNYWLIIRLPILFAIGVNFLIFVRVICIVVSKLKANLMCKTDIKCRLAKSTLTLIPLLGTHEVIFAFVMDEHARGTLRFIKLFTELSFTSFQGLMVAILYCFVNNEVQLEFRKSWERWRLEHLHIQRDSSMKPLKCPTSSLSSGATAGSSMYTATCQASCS
How it was run: as §1

[1] = HEK293, percent of maximal response to GIP(1-42)NH2, 37° C., 0.1% bovine casein, arithmetic mean, read-out: hGIPR Emax, % ± SEM
[2] = cAMP, incubated at 37° C., 0.1% bovine casein (no human serum albumin)
[3] = cAMP, incubated at 37° C., 0.1% bovine casein (no human serum albumin), read-out: hGCGR EC50, nM (SEM, n)
[4] = HEK293, percent of maximal response to GLP-1(7-36)NH2, read-out: hGLP-1R Emax, % ± SEM
[5] = 0.1% bovine casein and 1.0% human serum albumin, 37° C.
[6] = HEK293, 0.1% bovine casein and 1.0% human serum albumin, 37° C., percent of maximal response to GIP(1-42)NH2, read-out: hGIPR Emax, % ± SEM
[7] = 0.1% bovine casein and 1.0% human serum albumin, 37° C., read-out: hGCGR EC50, nM (SEM, n)

## CC[C@H](C)[C@H](NC(=O)[C@H](CC(C)C)NC(=O)[C@](C)(Cc1ccccc1)NC(=O)[C@H](CCCCNC(=O)COCCOCCNC(=O)COCCOCCNC(=O)CC[C@H](NC(=O)CCCCCCCCCCCCC(=O)O)C(=O)O)NC(=O)[C@@H](NC(=O)[C@](C)(Cc1ccccc1)NC(=O)[C@H](CCC(=O)O)NC(=O)C(C)(C)NC(=O)[C@H](CCC(N)=O)NC(=O)[C@H](C)NC(=O)[C@H](CCCCNC(=O)COCCOCCNC(=O)COCCOCCNC(=O)CC[C@H](NC(=O)CCCCCCCCCCCCC(=O)O)C(=O)O)NC(=O)[C@H](CCCN)NC(=O)[C@H](CC(=O)O)NC(=O)[C@H](CC(C)C)NC(=O)[C@](C)(CC(C)C)NC(=O)[C@@H](NC(=O)[C@H](CO)NC(=O)[C@H](Cc1ccncc1)NC(=O)[C@H](CC(=O)O)NC(=O)[C@H](CO)NC(=O)[C@@H](NC(=O)[C@](C)(Cc1ccccc1F)NC(=O)[C@@H](NC(=O)CNC(=O)[C@H](CCC(=O)O)NC(=O)C(C)(C)NC(=O)[C@@H](N)Cc1ccc(O)cc1)[C@@H](C)O)[C@@H](C)O)[C@@H](C)CC)[C@@H](C)CC)C(=O)N[C@@H](CCC(=O)O)C(=O)NCC(=O)NCC(=O)N1CCC[C@H]1C(=O)N[C@@H](CO)C(=O)N[C@@H](CO)C(=O)NCC(=O)N[C@@H](C)C(=O)N1CCC[C@H]1C(=O)N1CCC[C@H]1C(=O)N1CCC[C@H]1C(=O)N[C@@H](CO)C(N)=O [Example 84]
hGIPR; HEK293, read-out: hGIPR Emax, % ± SEM, percent of maximal response to GIP(1-42)NH2, 37° C., 0.1% bovine casein, arithmetic mean
  Emax: 98.5%
hGCGR; hGCGR EC50, nM (SEM, n), cAMP, incubated at 37° C., 0.1% bovine casein (no human serum albumin)
  EC50: > 9950 nM
hGLP-1R; HEK293, read-out: hGLP-1R Emax, % ± SEM, percent of maximal response to GLP-1(7-36)NH2
  Emax: 94%

## CC[C@H](C)[C@H](NC(=O)[C@H](CC(C)C)NC(=O)[C@H](Cc1ccc(O)cc1)NC(=O)[C@H](CCCCNC(=O)COCCOCCNC(=O)COCCOCCNC(=O)CC[C@H](NC(=O)CCCCCCCCCCCCC(=O)O)C(=O)O)NC(=O)[C@@H](NC(=O)[C@](C)(Cc1ccccc1)NC(=O)[C@H](CCC(=O)O)NC(=O)C(C)(C)NC(=O)[C@H](CCC(N)=O)NC(=O)[C@H](C)NC(=O)[C@H](CCCCNC(=O)COCCOCCNC(=O)COCCOCCNC(=O)CC[C@H](NC(=O)CCCCCCCCCCCCC(=O)O)C(=O)O)NC(=O)[C@H](CCCN)NC(=O)[C@H](CC(=O)O)NC(=O)[C@H](CC(C)C)NC(=O)[C@](C)(CC(C)C)NC(=O)[C@@H](NC(=O)[C@H](CO)NC(=O)[C@H](Cc1ccncc1)NC(=O)[C@H](CC(=O)O)NC(=O)[C@H](CO)NC(=O)[C@@H](NC(=O)[C@](C)(Cc1ccccc1F)NC(=O)[C@@H](NC(=O)CNC(=O)[C@H](CCC(=O)O)NC(=O)C(C)(C)NC(=O)[C@@H](N)Cc1ccc(O)cc1)[C@@H](C)O)[C@@H](C)O)[C@@H](C)CC)[C@@H](C)CC)C(=O)N[C@@H](CCC(=O)O)C(=O)NCC(=O)NCC(=O)N1CCC[C@H]1C(=O)N[C@@H](CO)C(=O)N[C@@H](CO)C(=O)NCC(=O)N[C@@H](C)C(=O)N1CCC[C@H]1C(=O)N1CCC[C@H]1C(=O)N1CCC[C@H]1C(=O)N[C@@H](CO)C(N)=O [Example 85] (H-Y[Aib]EGT[αMePhe(2-F)]TSD[4Pal]SI[αMeL]LD[Orn]K([AEEA-AEEA-γGlu-C14 diacid])AQ[Aib]E[αMeF]IK([AEEA-AEEA-γGlu-C14 diacid])YLIEGGPSSGAPPPS-NH2)
hGIPR; [1]
  Emax: 91.7%
hGIPR; [2]
  EC50: 0.0312 nM
hGCGR; [3]
  EC50: > 9950 nM
hGLP-1R; [4]
  Emax: 95.3%

## CC[C@H](C)[C@H](NC(=O)[C@H](CC(C)C)NC(=O)[C@](C)(Cc1ccc(O)cc1)NC(=O)[C@@H](CCC(=O)O)NC(=O)[C@@H](NC(=O)[C@H](Cc1ccccc1)NC(=O)[C@H](CCC(=O)O)NC(=O)C(C)(C)NC(=O)[C@H](CCC(N)=O)NC(=O)[C@H](C)NC(=O)[C@H](CCCCNC(=O)COCCOCCNC(=O)COCCOCCNC(=O)CC[C@H](NC(=O)CCCCCCCCCCCCC(=O)O)C(=O)O)NC(=O)[C@H](CCCN)NC(=O)[C@H](CC(=O)O)NC(=O)[C@H](CC(C)C)NC(=O)[C@](C)(CC(C)C)NC(=O)[C@@H](NC(=O)[C@H](CO)NC(=O)[C@](C)(Cc1ccccc1F)NC(=O)[C@H](CC(=O)O)NC(=O)[C@H](CO)NC(=O)[C@@H](NC(=O)[C@](C)(Cc1ccccc1F)NC(=O)[C@@H](NC(=O)CNC(=O)[C@H](CCC(=O)O)NC(=O)C(C)(C)NC(=O)[C@@H](N)Cc1ccc(O)cc1)[C@@H](C)O)[C@@H](C)O)[C@@H](C)CC)[C@@H](C)CC)C(=O)N[C@@H](CCC(=O)O)C(=O)NCC(=O)NCC(=O)N[C@@H](CCCCNC(=O)COCCOCCNC(=O)COCCOCCNC(=O)CC[C@H](NC(=O)CCCCCCCCCCCCC(=O)O)C(=O)O)C(=O)N[C@@H](CO)C(=O)N[C@@H](CO)C(=O)NCC(=O)N[C@@H](C)C(=O)N1CCC[C@H]1C(=O)N1CCC[C@H]1C(=O)N1CCC[C@H]1C(=O)N[C@@H](CO)C(N)=O [Example 87]
hGIPR; [5]
  EC50: 4.84 nM
hGIPR; [6]
  Emax: 89.2%
hGIPR; [1]
  Emax: 84.7%
hGCGR; [7]
  EC50: > 9950 nM
hGCGR; [3]
  EC50: > 9950 nM
hGLP-1R
  EC50: 1.34 nM

## CC[C@H](C)[C@H](NC(=O)[C@H](CC(C)C)NC(=O)[C@](C)(Cc1ccc(O)cc1)NC(=O)[C@@H](CCC(=O)O)NC(=O)[C@@H](NC(=O)[C@](C)(Cc1ccccc1F)NC(=O)[C@H](CCC(=O)O)NC(=O)C(C)(C)NC(=O)[C@H](CCC(N)=O)NC(=O)[C@H](C)NC(=O)[C@H](CCCCNC(=O)COCCOCCNC(=O)COCCOCCNC(=O)CC[C@H](NC(=O)CCCCCCCCCCCCC(=O)O)C(=O)O)NC(=O)[C@H](CCCN)NC(=O)[C@H](CC(=O)O)NC(=O)[C@H](CC(C)C)NC(=O)[C@](C)(CC(C)C)NC(=O)[C@@H](NC(=O)[C@H](CO)NC(=O)[C@H](Cc1ccncc1)NC(=O)[C@H](CC(=O)O)NC(=O)[C@H](CO)NC(=O)[C@@H](NC(=O)[C@](C)(Cc1ccccc1F)NC(=O)[C@@H](NC(=O)CNC(=O)[C@H](CCC(=O)O)NC(=O)C(C)(C)NC(=O)[C@@H](N)Cc1ccc(O)cc1)[C@@H](C)O)[C@@H](C)O)[C@@H](C)CC)[C@@H](C)CC)C(=O)N[C@@H](CCC(=O)O)C(=O)NCC(=O)NCC(=O)N[C@@H](CCCCNC(=O)COCCOCCNC(=O)COCCOCCNC(=O)CC[C@H](NC(=O)CCCCCCCCCCCCC(=O)O)C(=O)O)C(=O)N[C@@H](CO)C(=O)N[C@@H](CO)C(=O)NCC(=O)N[C@@H](C)C(=O)N1CCC[C@H]1C(=O)N1CCC[C@H]1C(=O)N1CCC[C@H]1C(=O)N[C@@H](CO)C(N)=O [Example 88]
hGIPR; [5]
  EC50: 0.591 nM
hGIPR; [6]
  Emax: 80.3%
hGIPR; [1]
  Emax: 85.1%
hGCGR; [7]
  EC50: > 9950 nM
hGCGR; [3]
  EC50: > 9950 nM
hGLP-1R; [4]
  Emax: 97.1%

## CC[C@H](C)[C@H](NC(=O)[C@H](CC(C)C)NC(=O)[C@](C)(Cc1ccc(O)cc1)NC(=O)[C@@H](CCC(=O)O)NC(=O)[C@@H](NC(=O)[C@H](Cc1ccccc1)NC(=O)[C@H](CCC(=O)O)NC(=O)C(C)(C)NC(=O)[C@H](CCC(N)=O)NC(=O)[C@H](C)NC(=O)[C@H](CCCCNC(=O)COCCOCCNC(=O)COCCOCCNC(=O)CC[C@H](NC(=O)CCCCCCCCCCCCC(=O)O)C(=O)O)NC(=O)[C@H](CCCN)NC(=O)[C@H](CC(=O)O)NC(=O)[C@H](CC(C)C)NC(=O)[C@](C)(CC(C)C)NC(=O)[C@@H](NC(=O)C(C)(C)NC(=O)[C@H](Cc1ccncc1)NC(=O)[C@H](CC(=O)O)NC(=O)[C@H](CO)NC(=O)[C@@H](NC(=O)[C@](C)(Cc1ccccc1F)NC(=O)[C@@H](NC(=O)CNC(=O)[C@H](CCC(=O)O)NC(=O)C(C)(C)NC(=O)[C@@H](N)Cc1ccc(O)cc1)[C@@H](C)O)[C@@H](C)O)[C@@H](C)CC)[C@@H](C)CC)C(=O)N[C@@H](CCC(=O)O)C(=O)NCC(=O)NCC(=O)N[C@@H](CCCCNC(=O)COCCOCCNC(=O)COCCOCCNC(=O)CC[C@H](NC(=O)CCCCCCCCCCCCC(=O)O)C(=O)O)C(=O)N[C@@H](CO)C(=O)N[C@@H](CO)C(=O)NCC(=O)N[C@@H](C)C(=O)N1CCC[C@H]1C(=O)N1CCC[C@H]1C(=O)N1CCC[C@H]1C(=O)N[C@@H](CO)C(N)=O [Example 89]
hGIPR; [6]
  Emax: 94.2%
hGIPR; [1]
  Emax: 88.9 ± 3.76%
hGIPR; [2]
  EC50: 0.0301 nM
hGCGR; [7]
  EC50: > 9950 nM
hGCGR; [3]
  EC50: > 9950 nM
hGLP-1R
  EC50: 1.03 nM

Source: US20230265151A1, “GIP/GLP1 CO-AGONIST COMPOUNDS” (priority 2020, published 2023)
